Source: patent US12616759B2, “Uses of labeled HSP90 inhibitors” (Sloan-Kettering Institute for Cancer Research, priority 2011, dated 2026)

Key:
[1] = tested on: FL5.12 mAKT-transfected cells; experiment: apoptosis in mAKT-transfected FL5.12 cells; assay type: cell-based
Excerpt: FL5.12 was derived as an interleukin-3 (IL-3)-dependent cell line with a functional JAK/STAT pathway and it has characteristic features of an early lymphocytic progenitor. Both the parental cells and the transfected cells express moderate-levels of active AKT and STAT5, as evidenced by AKT phosphorylation on Ser473 and STAT5 phosphorylation on Tyr694, respectively. The level of p-STAT5 but not p-AKT is dependent on the presence of IL-3. Introduction of a constitutively activated, myristoylated form of AKT (mAKT) under the control of a doxycycline (DOX)-inducible promoter further allows for the regulation of p-AKT levels in these cells. All together, these cells are a good isogenic model to evaluate the dependence of HSP90 inhibitor apoptotic sensitivity on activated AKT and STAT5-pathways.
Cells: Kasumi-1, SKNO-1, MOLM-13, MO-91, HEL, HL-60, THP-1, MV4-11 were grown in RPMI media supplemented with 10 mM HEPES, 4.5 g/L glucose, 1.5 g/L sodium bicarbonate, 1 mM sodium pyruvate, 10% FBS, and 1% penicillin/streptomycin. The stable transfectants of FL5.12 were previously described (18-Karnauskas 2003). In brief, for the generation of FL5.mAKT the myristylated AKT was cloned in the doxycycline inducible vector pRevTRE (Clontech) (this clone is designated mAKT). As a control, cell were transfected with vector alone (this clone is designated Vector). For generation of FL5.mAkt.Bcl-xL, the human Bcl-xL cDNA was cloned into the EcoRI site of the pBabePuro vector, and transfected into FL5.mAkt3 as described (18) (this clone is designated mAKT.Bcl-xL). These lines were cultured as described previously using DME-HG media supplemented with 10 mM HEPES, 10% FBS media containing 1 mg/ml Geneticin (G418) (Sigma #G9516) and 1 or 2 ng/mL of IL-3 (RD Systems #403 ML).
(§1) Apoptosis Assay: Cells were treated for 24, 48 or 72 h with vehicle (DMSO) or inhibitors as indicated. Following staining with Acridine Orange and Ethidium Bromide (1:1 mix of 100 µg/ml), cells were visualized with a fluorescent microscope (Zeiss Axiovert 40 CFL) and counted. Percentage of apoptotic cells was determined from 200-300 cells counted in each group. The percentage of apoptotic cells was calculated as: % Apoptotic cells=(total number of cells with apoptotic nuclei/total number of cells counted)×100.
Western blot: Cells were grown to 60-70% confluence and treated with inhibitor or vehicle for the indicated times. Protein lysates were prepared in 50 mM Tris pH 7.4, 150 mM NaCl and 1% NP-40 lysis buffer. Protein concentrations were measured using the BCA kit (Pierce) according to the manufacturer's instructions. Protein lysates (10-100 μg) were resolved by SDS-PAGE, transferred onto nitrocellulose membrane and incubated with the indicated primary antibodies. […]

AML cell lines = experiment: apoptosis in AML cell lines, acridine orange/ethidium bromide; assay type: cell-based, human
Experimental: as §1

HSP90 [2] = experiment: concomitant HSP90-streptavidin binding in live K562 cells; assay type: cell-based; conditions: for HSP90-streptavidin binding with K562 cells: live cells
Excerpt: Having shown that some of the molecules bind concomitantly to HSP90 and streptavidin, we next investigated whether this can similarly be accomplished in live cells.

HSP90 [3] = experiment: concomitant binding to HSP90 and streptavidin, K562 lysate; conditions: 100 μM; for HSP90-streptavidin binding with K562 lysate: streptavidin beads, overnight; for band at approximately 90 kDa, concomitant binding to HSP90 and streptavidin: K562 lysate, SDS-PAGE
Experimental: Having shown that each of the prepared biotinylated molecules retain good affinity to HSP90 we next wanted to determine whether the chain length was sufficient to maintain concomitant binding to HSP90 and streptavidin. […] Following sufficient washing to remove any unbound material, the remaining bead pellet was analyzed by SDS-PAGE. The gel was washed and stained with coomasie blue for 1 h.

HSP90 [4] = experiment: fluorescence polarization HSP90 binding assay using SKBr3 cancer cell lysate; conditions: fluorescence polarization
lung and bone metastases = experiment: response of breast cancer patient to STA9090 by CT and FDG-PET; assay type: in vivo, human; conditions: triple-negative breast cancer patient
Experimental: FIGS. 28A, 28B, 28C, and 28D. A triple-negative breast cancer patient was imaged with ^124I-PU-H71 PET. At 20 min post-injection, uptake is noted in a lung mass (left arrow), and a bone lesion (right arrow) FIG. 28A, but at 24 h uptake is seen only in the lung lesion FIG. 28B. Both the lung and bone tumors are confirmed by CT and FDG-scans FIG. 28C. The patient started treatment with the HSP90 inhibitor STA-9090.
In another aspect of the present invention, patients who are identified as being candidates for HSP90 therapy are treated with a pharmaceutically effective amount of an HSP90 inhibitor. We have determined that cancer patients that are determined to be candidates to HSP90 inhibition therapy respond highly favorably to HSP90 inhibition therapy. If a patient has multiple tumors, then only those tumors with a sufficient avidity for the radiolabeled HSP90 inhibitor are expected to respond to HSP90 inhibition therapy. […] Similar results were obtained in patients with lymphoma, pancreatic cancer and neuroblastoma patients.

Compound	HSP90-streptavidin binding with K562 cells (HSP90 [2]; 100 μM, 4 h)	HSP90-streptavidin binding with K562 lysate (HSP90 [3])	band at approximately 90 kDa, concomitant binding to HSP90 and streptavidin (HSP90 [3])	EC50 (HSP90 [4]) [nM]	binding in live K562 cells (HSP90 [2]; 100 μM, 4 h)	other results
O=c1[nH]c2ccccc2n1C1CCN(Cc2ccc(-c3nc4cc5[nH]cnc5cc4nc3-c3ccccc3)cc2)CC1 [AKTi, reference compound]	–	–	–	–	–	apoptotic cells ([1]; AKT activity increased by DOX): 30%; apoptotic cells ([1]; without DOX): 15-20%; effect on apoptosis (AML cell lines; HEL cells in culture): little to no effect
COc1cccc(-c2cc(=O)c3ccccc3o2)c1N [MEKi, reference compound]	–	–	–	–	–	induction of apoptosis (AML cell lines; 24, 48 and 72 h): Modest or little induction of apoptosis
CC(C)N(CCCn1c(Sc2cc3c(cc2I)OCO3)nc2c(N)ncnc21)C(=O)CCCC[C@@H]1SC[C@@H]2NC(=O)N[C@@H]21 [PU-H71-biotin2]	No	No	did not show a band at 90 kDa	154	–	–
Nc1ncnc2c1nc(Sc1cc3c(cc1I)OCO3)n2CCCNC(=O)CCCC[C@@H]1SC[C@@H]2NC(=O)N[C@@H]21 [PU-H71-biotin3]	No	No	did not show a band at 90 kDa	44.3	–	–
Nc1ncnc2c1nc(Sc1cc3c(cc1I)OCO3)n2CCCNC(=O)CCCCCNC(=O)CCCC[C@@H]1SC[C@@H]2NC(=O)N[C@@H]21 [PU-H71-biotin4]	No	No	did not show a band at 90 kDa	34.8	–	–
Nc1ncnc2c1nc(Sc1cc3c(cc1I)OCO3)n2CCCNC(=O)CCCCCNC(=O)CCCCCNC(=O)CCCC[C@@H]1SC[C@@H]2NC(=O)N[C@@H]21 [PU-H71-biotin5]	Yes	Yes	show a band at approximately 90 kDa	31.4	are able to permeate the cell membrane	–
Nc1ncnc2c1nc(Sc1cc3c(cc1I)OCO3)n2CCCNC(=O)CCOCCOCCOCCOCCNC(=O)CCCC[C@@H]1SC[C@@H]2NC(=O)N[C@@H]21 [PU-H71-biotin6]	Yes	Yes	show a band at approximately 90 kDa	66.2	are able to permeate the cell membrane	band at approximately 90 kDa (HSP90 [2]; 0.5 μM): still shows a faint band; binding in live K562 cells (HSP90 [2]; 10 μM): maintain good binding; band at approximately 90 kDa (HSP90 [2]; lowest concentration 1 μM): a faint band is still present
CC(C)N(CCCn1c(Sc2cc3c(cc2I)OCO3)nc2c(N)ncnc21)C(=O)CCCCCNC(=O)CCCC[C@@H]1SC[C@@H]2NC(=O)N[C@@H]21 [PU-H71-biotin7]	No	No	did not show a band at 90 kDa	72.8	–	–
CC(C)N(CCCn1c(Sc2cc3c(cc2I)OCO3)nc2c(N)ncnc21)C(=O)CCCCCNC(=O)CCCCCNC(=O)CCCC[C@@H]1SC[C@@H]2NC(=O)N[C@@H]21 [PU-H71-biotin8]	Yes	Yes	show a band at approximately 90 kDa	76.9	are able to permeate the cell membrane	–
CC(C)N(CCCn1c(Sc2cc3c(cc2I)OCO3)nc2c(N)ncnc21)C(=O)CCOCCOCCOCCOCCNC(=O)CCCC[C@@H]1SC[C@@H]2NC(=O)N[C@@H]21 [PU-H71-biotin9]	Yes	Yes	show a band at approximately 90 kDa	110	are able to permeate the cell membrane	binding in live K562 cells (HSP90 [2]; 10 μM): maintain good binding; band at approximately 90 kDa (HSP90 [2]; lowest concentration 1 μM): a faint band is still present
Nc1ncnc2c1nc(Sc1cc3c(cc1I)OCO3)n2CCCNCCOCCOCCOCCNC(=O)CCCC[C@@H]1SC[C@@H]2NC(=O)N[C@@H]21 [PU-H71-biotin]	No	Yes	show a band at approximately 90 kDa	58.9	failed to maintain binding in live cells	–
CC(C)c1cc(-c2n[nH]c(=O)n2-c2ccc3c(ccn3C)c2)c(O)cc1O [STA9090]	–	–	–	–	–	tumor response (lung and bone metastases): early partial response was demonstrated by FDG PET-CT studies in the lung mass but not in the spinal lesion; tumor response (lung and bone metastases; listed as STA-9090): the lung but not the bone lesion is remarkably reduced in size
